Experimental data reported in patent US20240158446A1, “CYCLIC COMPOUND HAVING SELECTIVE INHIBITORY ACTION ON KRAS OVER HRAS AND NRAS” (CHUGAI SEIYAKU KABUSHIKI KAISHA, priority 2021, published 2024).
*1 amine or outer side, *2 acyl side, *3 side chain or, on linkers, in order; H or OH if unused. Where a SMILES comes first, the peptide text is derived from it. Bridges are numbered along the chain shown (N, C = ends). [ ]: non-standard residue; d: D form. The star is where a group is joined. hPhe(3,5-F2-4-CF3) = N[C@@H](CCc1cc(F)c(C(F)(F)F)c(F)c1)C(=O)O; hPhe(3-Cl-4-CF3) = N[C@@H](CCc1ccc(C(F)(F)F)c(Cl)c1)C(=O)O; NPrPhe(4-CF3) = CCCN[C@@H](Cc1ccc(C(F)(F)F)cc1)C(=O)O; X13 = O=C([C@@H](N[*:1])C1CC(F)(F)C1)[*:2]; NMeGly(cPent) = CN[C@H](C(=O)O)C1CCCC1; Gly(N-propargyl) = C#CCNCC(=O)O; NMeD = CN[C@@H](CC(=O)O)C(=O)O; NMeL = CN[C@@H](CC(C)C)C(=O)O; X50 = O=C(CN(CCF)[*:1])[*:2]; Morpholide = C1CN(*)CCO1; NAllylGly = C=CCNCC(=O)O; Ac5c = NC1(C(=O)O)CCCC1; Sar = CNCC(=O)O

Key:
[1] = biological target: GDP-bound KRAS wild-type protein (Homo sapiens, UniProt P01116); experiment: Binding to KRAS by surface plasmon resonance (SPR), Single Cycle Kinetics; settings: SPR Single Cycle Kinetics, GDP-bound KRAS wild-type protein, 1:1 binding model; read-out: KRAS KD
GDP-bound KRAS wild-type protein, sequence (P01116 whole entry): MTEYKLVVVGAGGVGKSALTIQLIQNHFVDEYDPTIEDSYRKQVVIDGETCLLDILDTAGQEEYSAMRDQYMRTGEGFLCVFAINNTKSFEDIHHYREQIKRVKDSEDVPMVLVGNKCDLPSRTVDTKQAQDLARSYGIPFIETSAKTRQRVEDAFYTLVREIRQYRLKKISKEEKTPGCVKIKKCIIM

[2] = biological target: GDP-bound NRAS wild-type protein (Homo sapiens, UniProt P01111); experiment: Binding to NRAS by surface plasmon resonance (SPR), Single Cycle Kinetics; settings: SPR, GDP-bound NRAS wild-type protein vs GDP-bound KRAS wild-type protein
GDP-bound NRAS wild-type protein, sequence (P01111 whole entry): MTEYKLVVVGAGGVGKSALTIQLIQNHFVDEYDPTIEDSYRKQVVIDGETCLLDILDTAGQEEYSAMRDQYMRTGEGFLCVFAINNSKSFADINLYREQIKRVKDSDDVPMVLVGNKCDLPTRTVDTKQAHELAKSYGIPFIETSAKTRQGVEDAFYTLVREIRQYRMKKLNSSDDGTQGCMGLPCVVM

[3] = biological target: GDP-bound HRAS wild-type protein (Homo sapiens, UniProt P01112); experiment: Binding to HRAS by surface plasmon resonance (SPR), Single Cycle Kinetics; settings: SPR, GDP-bound HRAS wild-type protein vs GDP-bound KRAS wild-type protein
GDP-bound HRAS wild-type protein, sequence (P01112 whole entry): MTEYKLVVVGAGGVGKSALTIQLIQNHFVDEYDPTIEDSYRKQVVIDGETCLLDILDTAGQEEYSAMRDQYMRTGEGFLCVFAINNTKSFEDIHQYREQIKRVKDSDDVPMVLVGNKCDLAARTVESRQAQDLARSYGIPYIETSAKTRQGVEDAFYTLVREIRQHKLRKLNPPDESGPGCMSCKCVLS

Structure (SMILES) | Kd [1] [nM] | NRAS/KRAS (ratio of KD value with respect to NRAS to KD value with respect to KRAS) [2] | HRAS/KRAS (ratio of KD value with respect to HRAS to KD value with respect to KRAS) [3]
CCCN1C(=O)CN(C)C(=O)CN(C)C(=O)[C@H](C2CC(F)(F)C2)NC(=O)[C@H](CC(C)C)N(C)C(=O)C[C@@H](C(=O)N(C)C)N(C)C(=O)[C@H](C2CCCC2)N(C)C(=O)C2(CCCC2)NC(=O)[C@@H]2CCCN2C(=O)[C@H](CCc2cc(F)c(C(F)(F)F)c(F)c2)NC(=O)CN(C)C(=O)[C@@H]1Cc1ccc(C(F)(F)F)cc1 [PP0748] ([NMeL][X13][Sar][Sar][NPrPhe(4-CF3)][Sar][hPhe(3,5-F2-4-CF3)]P[Ac5c][NMeGly(cPent)][NMeD]-NMe2; lactam N-11) | 0.08 | B (a compound having 3 or more and less than 10 is denoted as B) | B (a compound having 3 or more and less than 10 is denoted as B)
C=CCN1CC(=O)N(C)CC(=O)N(CCC)[C@@H](Cc2ccc(C(F)(F)F)cc2)C(=O)N(C)CC(=O)N[C@@H](CCc2ccc(C(F)(F)F)c(Cl)c2)C(=O)N2CCC[C@H]2C(=O)NC2(CCCC2)C(=O)N(C)[C@@H](C2CCCC2)C(=O)N(C)[C@H](C(=O)N2CCOCC2)CC(=O)N(C)[C@@H](CC(C)C)C(=O)N[C@@H]([C@@H](C)CC)C1=O [PP0749] ([NMeL]I[NAllylGly][Sar][NPrPhe(4-CF3)][Sar][hPhe(3-Cl-4-CF3)]P[Ac5c][NMeGly(cPent)][NMeD]-Morpholide; lactam N-11) | 0.59 | B (a compound having 3 or more and less than 10 is denoted as B) | C (A compound having a KD ratio of 0.1 or more and less than 3 is denoted as C)
C#CCN1CC(=O)N(C)CC(=O)N(CCC)[C@@H](Cc2ccc(C(F)(F)F)cc2)C(=O)N(C)CC(=O)N[C@@H](CCc2ccc(C(F)(F)F)c(Cl)c2)C(=O)N2CCC[C@H]2C(=O)NC2(CCCC2)C(=O)N(C)[C@@H](C2CCCC2)C(=O)N(C)[C@H](C(=O)N2CCOCC2)CC(=O)N(C)[C@@H](CC(C)C)C(=O)N[C@@H]([C@@H](C)CC)C1=O [PP0750] ([NMeL]I[Gly(N-propargyl)][Sar][NPrPhe(4-CF3)][Sar][hPhe(3-Cl-4-CF3)]P[Ac5c][NMeGly(cPent)][NMeD]-Morpholide; lactam N-11) | 0.37 | B (a compound having 3 or more and less than 10 is denoted as B) | C (A compound having a KD ratio of 0.1 or more and less than 3 is denoted as C)

More lines, main results first:

Kd [1] [nM] | Structure (SMILES) | NRAS/KRAS (ratio of KD value with respect to NRAS to KD value with respect to KRAS) [2] | HRAS/KRAS (ratio of KD value with respect to HRAS to KD value with respect to KRAS) [3]
0.52 | CCCN1C(=O)CN(C)C(=O)CN(CCF)C(=O)[C@H]([C@@H](C)CC)NC(=O)[C@H](CC(C)C)N(C)C(=O)C[C@@H](C(=O)N2CCOCC2)N(C)C(=O)[C@H](C2CCCC2)N(C)C(=O)C2(CCCC2)NC(=O)[C@@H]2CCCN2C(=O)[C@H](CCc2ccc(C(F)(F)F)c(Cl)c2)NC(=O)CN(C)C(=O)[C@@H]1Cc1ccc(C(F)(F)F)cc1 [PP0751] ([NMeL]I[X50][Sar][NPrPhe(4-CF3)][Sar][hPhe(3-Cl-4-CF3)]P[Ac5c][NMeGly(cPent)][NMeD]-Morpholide; lactam N-11) | B (a compound having 3 or more and less than 10 is denoted as B) | C (A compound having a KD ratio of 0.1 or more and less than 3 is denoted as C)
0.14 | CCCN1C(=O)CN(C)C(=O)CN(C)C(=O)[C@H]([C@@H](C)CC)NC(=O)[C@H](CC(C)C)N(C)C(=O)C[C@@H](C(=O)N2CCOCC2)N(C)C(=O)[C@H](C2CCCC2)N(C)C(=O)C2(CCCC2)NC(=O)[C@@H]2CCCN2C(=O)[C@H](CCc2cc(F)c(C(F)(F)F)c(F)c2)NC(=O)CN(C)C(=O)[C@@H]1Cc1ccc(C(F)(F)F)cc1 [PP0753] ([NMeL]I[Sar][Sar][NPrPhe(4-CF3)][Sar][hPhe(3,5-F2-4-CF3)]P[Ac5c][NMeGly(cPent)][NMeD]-Morpholide; lactam N-11) | B (a compound having 3 or more and less than 10 is denoted as B) | C (A compound having a KD ratio of 0.1 or more and less than 3 is denoted as C)
